Laboratory results: patent US20100260830A1, “Liposomal Formulations of Tocopheryl Amides” (priority 2009, published 2010)
pIC50: −log10 of the molar value. Read-outs that look alike come from different tables or passages of the source.

What was measured:
Jurkat T cells = test: Mitochondrial membrane potential ΔΨ, flow cytometry with JC-1 probe; type: cell-based
Excerpt: FIG. 3 illustrates the effect of selected chromans on mitochondrial membrane potential ΔΨ in vitro. […] Deviations in ΔΨ were estimated by flow cytometry followed by cell staining with the polychromatic JC-1 probe.

[1] = tested on: mouse melanoma B16F10 cells; test: Cytotoxic effect on melanoma cells in vitro
Protocol: (§1) IC50 values were calculated from MTT activity (Bank, U et al, 1991, Measurement of cellular activity by means of the MTT-test. Allerg Immunol 37:119-123).

Meso-2 cells = test: IC50 against Meso-2 cells (FIG. 14A); type: cell-based; conditions: values only in FIG. 14A
Excerpt: In FIG. 14A, esters and amides of the chromanol and N-chroman genera are compared. […] There is a correlation between increased potency and CLogP, where amide lipophilicity is consistently greater than that of the corresponding esters. Other factors of molecular structure also play a role.

[2] = tested on: granulocyte/macrophage colony forming cells (GM-CFC); test: GM-CFC colony formation in vitro; type: cell-based, Balb/c mouse; conditions: Balb/c bone marrow GM progenitors
Protocol: FIGS. 8A and 8B are comparative views illustrating the paradoxical effect of the liposomal formulation on non-specific toxicity, here to granulocyte/macrophage colony forming cells (GM-CFC). […] In the left panel, GM progenitors were isolated from Balb/c mouse bone morrow and treated with αTOS (left) or αTAM (right, black bars) at the concentrations shown, the number of colonies was counted and expressed per individual well. In the right panel, Balb/c mice were injected i.p. with the vehicle (40), empty liposomes (41) liposomal αTOS at 100 mg/kg (42), αTAM at 10 mg/kg (43), or αTAM at 25 mg/kg (44), and GM-CFC colonies in femoral bone marrow counted 48 h later (* denotes statistically significant differences with pb0.05 in comparison to control). […] This surprising result is paradoxical, and points to the importance of the formulation vehicle as a technological advance in achieving clinical trials of these compounds.

[3] = tested on: non-malignant cells (e.g. lymphocytes and bone marrow progenitors); test: In vitro models of non-malignant cells; type: cell-based
[4] = General toxicity in mice by the Berlin Test; type: in vivo; conditions: 5 mg/kg in DMSO
Excerpt: The general toxicity of liposomal preparations of αTAM was studied further in mice by the Berlin Test. Untreated mice and mice treated with empty liposomes were used as controls. […] Symptoms including spasms and heavy breathing pointed to neurotoxicity, embolie or anaphylactic reaction. Therefore, we have discontinued experiments that involved the use of non-liposomal formulations of αTAM.

[5] = tested on: human breast cancer cell line MCF-7; test: MTT cytotoxicity IC50; type: cell-based; conditions: calculated from MTT activity
Protocol: as §1

[6] = Injection of αTAM dissolved in DMSO or ethanol (Prior Art I); type: in vivo, mice
Excerpt: In earlier work to develop a formulation of αTAM for preclinical study, the compound was first dissolved in DMSO or ethanol as has been characteristic of studies of this kind (Weber et al, 2002, Vitamin E succinate is a potent novel antineoplastic agent with high selectivity and cooperativity with tumor necrosis factor-related apoptosis-inducing ligand (Apo2 ligand) in vivo, Clin Cancer Res 8:863-69; Yu et al, 1999, Induction of apoptosis in human breast cancer cells by tocopherols and tocotrienols, Nutr Cancer 33:26-32).

**Q.** With `Cc1c(C)c2c(c(C)c1NC(=O)CCC(=O)O)CCC(C)(CCCC(C)CCCC(C)CCCC(C)C)O2` (stereo not drawn) [αTAS, α-tocopheryl succinamide] as the molecule, how does the “dissipating mitochondrial inner transmembrane potential” value (Jurkat T cells) read?
**A.** potent in dissipating mitochondrial inner transmembrane potential

**Q.** For `Cc1c(C)c2c(c(C)c1NC(=O)/C=C\C(=O)O)CCC(C)(CCCC(C)CCCC(C)CCCC(C)C)O2` (stereo not drawn) [αTAM, α-tocopheryl maleamide], which “cytotoxic potential (order)” value [1] is on record?
**A.** αTAM>αTOM>αTOS>>αTOH

**Q.** And the “cytolytic potency versus the corresponding tocopheryl succinates” value (Meso-2 cells)?
**A.** markedly increased cytolytic potency

**Q.** What about the “dissipating mitochondrial inner transmembrane potential” value (Jurkat T cells) of the same molecule?
**A.** potent in dissipating mitochondrial inner transmembrane potential

**Q.** And the “toxicity to GM progenitors in vitro” value [2]?
**A.** the compound is toxic in vitro

**Q.** And the “cytotoxicity to non-malignant cells” value [3]?
**A.** cytotoxic to non-malignant cells

**Q.** And the tolerated dose (given in liposomal formulation)?
**A.** 500 μg per 20 g mouse

**Q.** What about the “dose feasible for human use” value (mouse, in vivo) of the same molecule?
**A.** 1.75 g

**Q.** What about the safe dose (mouse, in vivo) of the same molecule?
**A.** 25 mg/kg

**Q.** And the “outcome of free compound administered in DMSO” value [4]?
**A.** caused rapid death of the animals

**Q.** And the pIC50 [5]?
**A.** 4.88

**Q.** What about the “outcome of one or two injections in DMSO” value ([6]; Balb/c, C57B1 or FVB/N c-neu mice) of the same molecule?
**A.** caused death of the animals

**Q.** What about the “toxicity of solution in DMSO (or ethanol)” value ([6]; non-liposomal solution) of the same molecule?
**A.** extremely toxic

**Q.** For tocopheryl succinate [αTOS], which “cytotoxic potential (order)” value ([1]; B16F10 in vitro) is on record?
**A.** αTAM>αTOM>αTOS>>αTOH

**Q.** For `Cc1c(C)c2c(c(C)c1O)CC[C@@](C)(CCC[C@H](C)CCC[C@H](C)CCCC(C)C)O2` [αTOH], which “cytotoxic potential (order)” value [1] is on record?
**A.** No toxicity was observed
